According to patent US9539260B2, “Dihydro-benzo-oxazine and dihydro-pyrido-oxazine derivatives” (Novartis AG, priority 2012, dated 2017):

Experiments:
PI3K delta = PI3K delta (Homo sapiens (Human), UniProt O00329); assay: Enzymatic PI3K delta isoform inhibition (lipid kinase activity, Kinase-Glo luminescence); type: biochemical; conditions: Enzymatic assay
Summary of the method: (§1)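 ATP-depletion format: 10 nM PI3K with 5 μg/mL phosphatidylinositol and 2 μM ATP, run to ~50% ATP consumption, then Kinase-Glo added and remaining ATP read by luminescence after 5 min. IC50 from 4-parameter logistic fit, typically over 8 concentrations 10–0.003 μM.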

PI3K alpha = PI3K alpha (Homo sapiens (Human), UniProt P42336); assay: Enzymatic PI3K alpha isoform inhibition (lipid kinase activity, Kinase-Glo luminescence); type: biochemical; conditions: Enzymatic assay
Summary of the method: as §1

PI3K alpha, sequence (P42336 other isoform, or with tags, fused parts or gaps): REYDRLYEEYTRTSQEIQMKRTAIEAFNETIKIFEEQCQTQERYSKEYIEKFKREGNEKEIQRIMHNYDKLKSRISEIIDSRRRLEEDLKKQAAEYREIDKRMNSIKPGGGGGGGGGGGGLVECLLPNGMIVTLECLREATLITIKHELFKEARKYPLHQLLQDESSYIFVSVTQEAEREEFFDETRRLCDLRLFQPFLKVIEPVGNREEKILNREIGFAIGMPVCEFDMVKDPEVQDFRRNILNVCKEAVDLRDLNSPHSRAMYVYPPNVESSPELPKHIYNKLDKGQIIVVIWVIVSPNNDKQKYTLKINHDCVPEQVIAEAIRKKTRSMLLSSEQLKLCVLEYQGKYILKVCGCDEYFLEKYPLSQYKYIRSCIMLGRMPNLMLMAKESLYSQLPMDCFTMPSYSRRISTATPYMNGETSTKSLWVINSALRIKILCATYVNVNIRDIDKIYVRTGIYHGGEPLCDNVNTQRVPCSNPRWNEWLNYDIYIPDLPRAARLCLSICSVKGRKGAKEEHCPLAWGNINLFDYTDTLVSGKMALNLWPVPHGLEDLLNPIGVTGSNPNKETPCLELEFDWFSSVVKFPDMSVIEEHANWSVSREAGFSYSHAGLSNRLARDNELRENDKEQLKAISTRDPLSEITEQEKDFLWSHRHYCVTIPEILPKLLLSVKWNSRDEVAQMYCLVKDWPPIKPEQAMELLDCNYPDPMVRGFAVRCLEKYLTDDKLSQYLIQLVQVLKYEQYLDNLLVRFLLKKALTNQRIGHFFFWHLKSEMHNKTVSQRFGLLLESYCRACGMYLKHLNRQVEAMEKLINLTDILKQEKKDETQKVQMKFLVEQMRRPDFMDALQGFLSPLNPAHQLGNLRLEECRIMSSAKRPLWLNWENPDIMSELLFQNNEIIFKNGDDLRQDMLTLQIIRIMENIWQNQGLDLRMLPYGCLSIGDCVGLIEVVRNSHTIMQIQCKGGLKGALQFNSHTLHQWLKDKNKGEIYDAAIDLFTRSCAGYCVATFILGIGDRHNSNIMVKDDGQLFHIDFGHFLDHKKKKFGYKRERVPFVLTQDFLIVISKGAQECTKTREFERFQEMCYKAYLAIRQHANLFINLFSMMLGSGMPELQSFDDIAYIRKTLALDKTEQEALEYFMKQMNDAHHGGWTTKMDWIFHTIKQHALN
PI3K delta, sequence (O00329 other isoform, or with tags, fused parts or gaps linker GGGGGG): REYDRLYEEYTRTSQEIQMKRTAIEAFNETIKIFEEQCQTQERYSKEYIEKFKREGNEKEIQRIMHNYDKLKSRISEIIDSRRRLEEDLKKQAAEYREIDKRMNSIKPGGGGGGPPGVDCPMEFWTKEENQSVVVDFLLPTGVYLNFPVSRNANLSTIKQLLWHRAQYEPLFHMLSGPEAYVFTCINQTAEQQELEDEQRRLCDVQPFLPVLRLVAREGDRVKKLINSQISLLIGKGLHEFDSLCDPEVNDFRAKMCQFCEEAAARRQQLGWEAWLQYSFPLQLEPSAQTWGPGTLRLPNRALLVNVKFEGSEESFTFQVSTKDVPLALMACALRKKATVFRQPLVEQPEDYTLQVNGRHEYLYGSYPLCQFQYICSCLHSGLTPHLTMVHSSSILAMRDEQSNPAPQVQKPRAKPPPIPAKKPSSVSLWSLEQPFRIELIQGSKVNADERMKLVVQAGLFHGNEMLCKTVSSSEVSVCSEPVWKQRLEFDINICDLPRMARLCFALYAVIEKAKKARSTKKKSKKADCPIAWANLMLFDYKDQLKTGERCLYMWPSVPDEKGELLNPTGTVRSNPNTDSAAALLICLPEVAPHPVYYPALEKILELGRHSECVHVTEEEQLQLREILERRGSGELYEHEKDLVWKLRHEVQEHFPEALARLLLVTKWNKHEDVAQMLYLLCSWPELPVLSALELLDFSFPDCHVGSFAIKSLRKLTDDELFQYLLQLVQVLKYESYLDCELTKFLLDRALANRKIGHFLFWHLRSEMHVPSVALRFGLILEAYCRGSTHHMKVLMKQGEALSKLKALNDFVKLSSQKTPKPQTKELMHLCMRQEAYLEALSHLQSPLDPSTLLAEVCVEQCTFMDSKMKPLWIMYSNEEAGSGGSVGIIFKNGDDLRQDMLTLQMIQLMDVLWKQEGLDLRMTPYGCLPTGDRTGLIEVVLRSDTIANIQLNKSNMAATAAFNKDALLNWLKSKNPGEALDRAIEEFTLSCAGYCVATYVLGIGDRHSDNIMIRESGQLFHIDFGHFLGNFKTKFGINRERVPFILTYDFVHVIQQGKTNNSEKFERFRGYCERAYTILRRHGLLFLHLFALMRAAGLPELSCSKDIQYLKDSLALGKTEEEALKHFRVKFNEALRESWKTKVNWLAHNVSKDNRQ

| IC50 (PI3K delta) | IC50 (PI3K alpha) | SMILES |
| --- | --- | --- |
| 214 nM | 2530 nM | CCC(=O)N1C[C@@H](Oc2ccc3c(c2)N(c2cnc(OC)c(C#N)c2)CCO3)CO1 [Example D23, 2-Methoxy-5-[6-((R)-2-propionyl-isoxazolidin-4-yloxy)-2,3-dihydro-benzo[1,4]oxazin-4-yl]-nicotinonitrile] |
| 7080 nM | > 9100 nM | COc1ncc(N2CCOc3ccc(O[C@@H]4CON(C(=O)C5CCOCC5)C4)cc32)cc1C#N [Example D24, 2-Methoxy-5-{6-[(S)-2-(tetrahydro-pyran-4-carbonyl)-isoxazolidin-4-yloxy]-2,3-dihydro-benzo[1,4]oxazin-4-yl}-nicotinonitrile] |
| 2690 nM | > 9100 nM | CCC(=O)N1C[C@H](Oc2ccc3c(c2)N(c2cnc(OC)c(C#N)c2)CCO3)CO1 [Example D25, 2-Methoxy-5-[6-((S)-2-propionyl-isoxazolidin-4-yloxy)-2,3-dihydro-benzo[1,4]oxazin-4-yl]-nicotinonitrile] |
| 28 nM | 1240 nM | COc1ncc(N2CCOc3ccc(O[C@H]4CON(C(=O)c5cn(C)cn5)C4)cc32)cc1C#N [Example D26, 2-Methoxy-5-{6-[(R)-2-(1-methyl-1H-imidazole-4-carbonyl)-isoxazolidin-4-yloxy]-2,3-dihydro-benzo[1,4]oxazin-4-yl}-nicotinonitrile] |
| 64 nM | 1570 nM | COc1ncc(N2CCOc3ccc(O[C@H]4CCN(C(=O)c5cnn(C)c5)C4)cc32)cc1C#N [Example D27, 2-Methoxy-5-{6-[(S)-1-(1-methyl-1H-pyrazole-4-carbonyl)-pyrrolidin-3-yloxy]-2,3-dihydro-benzo[1,4]oxazin-4-yl}-nicotinonitrile] |
| 127 nM | 5150 nM | COc1ccc(N2CCOc3ccc(O[C@H]4CCN(C(=O)C5CCOCC5)C4)cc32)cn1 [Example D30, {(S)-3-[4-(6-Methoxy-pyridin-3-yl)-3,4-dihydro-2H-benzo[1,4]oxazin-6-yloxy]-pyrrolidin-1-yl}-(tetrahydro-pyran-4-yl)-methanone] |
| 9 nM | 135 nM | COc1ncc(N2CCOc3ccc(O[C@H]4CCN(C(=O)c5cncn5C)C4)cc32)cc1C#N [Example D31, 2-Methoxy-5-{6-[(S)-1-(3-methyl-3H-imidazole-4-carbonyl)-pyrrolidin-3-yloxy]-2,3-dihydro-benzo[1,4]oxazin-4-yl}-nicotinonitrile] |
| 9 nM | 94 nM | COc1ncc(N2CCOc3ccc(O[C@H]4CCN(C(=O)c5cnco5)C4)cc32)cc1C#N [Example D32, 2-Methoxy-5-{6-[(S)-1-(oxazole-5-carbonyl)-pyrrolidin-3-yloxy]-2,3-dihydro-benzo[1,4]oxazin-4-yl}-nicotinonitrile] |
| 8 nM | 117 nM | COc1ncc(N2CCOc3ccc(O[C@H]4CCN(C(=O)c5ocnc5C)C4)cc32)cc1C#N [Example D33, 2-Methoxy-5-{6-[(S)-1-(4-methyl-oxazole-5-carbonyl)-pyrrolidin-3-yloxy]-2,3-dihydro-benzo[1,4]oxazin-4-yl}-nicotinonitrile] |
| 9 nM | 273 nM | COc1ncc(N2CCOc3ccc(O[C@H]4CCN(C(=O)N5CCOCC5)C4)cc32)cc1C#N [Example D34, 2-Methoxy-5-{6-[(S)-1-(morpholine-4-carbonyl)-pyrrolidin-3-yloxy]-2,3-dihydro-benzo[1,4]oxazin-4-yl}-nicotinonitrile] |
| 127 nM | 298 nM | COc1ncc(N2CCOc3ccc(O[C@H]4CCN(C(=O)Cc5cn(C)cn5)C4)cc32)cc1C#N [Example D37, 2-Methoxy-5-(6-{(S)-1-[2-(1-methyl-1H-imidazol-4-yl)-acetyl]-pyrrolidin-3-yloxy}-2,3-dihydro-benzo[1,4]oxazin-4-yl)-nicotinonitrile] |
| 18 nM | 516 nM | COc1ncc(N2CCOc3ccc(O[C@H]4CCN(C(=O)C5CCNCC5)C4)cc32)cc1C#N [Example D38, 2-Methoxy-5-{6-[(S)-1-(piperidine-4-carbonyl)-pyrrolidin-3-yloxy]-2,3-dihydro-benzo[1,4]oxazin-4-yl}-nicotinonitrile] |
| 36 nM | 987 nM | COc1ncc(N2CCOc3ccc(O[C@H]4CCN(C(=O)[C@H]5CCNC5)C4)cc32)cc1C#N [Example D39, 2-methoxy-5-{6-[(S)-1-((S)-pyrrolidine-3-carbonyl)-pyrrolidin-3-yloxy]-2,3-dihydro-benzo[1,4]oxazin-4-yl}-nicotinonitrile] |
| 25 nM | 704 nM | COc1ncc(N2CCOc3ccc(O[C@H]4CCN(C(=O)[C@@H]5CCNC5)C4)cc32)cc1C#N [Example D40, 2-methoxy-5-{6-[(S)-1-((R)-pyrrolidine-3-carbonyl)-pyrrolidin-3-yloxy]-2,3-dihydro-benzo[1,4]oxazin-4-yl}-nicotinonitrile] |
| 9 nM | 341 nM | COc1ncc(N2CCOc3cnc(O[C@H]4CCN(C(=O)C5CCS(=O)(=O)CC5)C4)cc32)cc1C(F)(F)F [Example E6, (1,1-Dioxo-hexahydro-1lambda*6*-thiopyran-4-yl)-{(S)-3-[1-(6-methoxy-5-trifluoromethyl-pyridin-3-yl)-2,3-dihydro-1H-pyrido[3,4-b][1,4]oxazin-7-yloxy]-pyrrolidin-1-yl}-methanone] |
| 22 nM | 133 nM | COc1ncc(N2CCOc3cnc(O[C@H]4CCN(C(=O)c5cn(C)cn5)C4)cc32)cc1C(F)(F)F [Example E7, {(S)-3-[1-(6-Methoxy-5-trifluoromethyl-pyridin-3-yl)-2,3-dihydro-1H-pyrido[3,4-b][1,4]oxazin-7-yloxy]-pyrrolidin-1-yl}-(1-methyl-1H-imidazol-4-yl)-methanone] |
| 7 nM | 593 nM | Cc1cc(N2CCOc3cnc(O[C@H]4CCN(C(=O)C5CCOCC5)C4)cc32)cnc1OC(F)F [Example E9, {(S)-3-[1-(6-Difluoromethoxy-5-methyl-pyridin-3-yl)-2,3-dihydro-1H-pyrido[3,4-b][1,4]oxazin-7-yloxy]pyrrolidin-1-yl}-(tetrahydro-pyran-4-yl)-methanone] |
| 13 nM | 229 nM | Cc1cc(N2CCOc3cnc(O[C@H]4CCN(C(=O)c5cn(C)cn5)C4)cc32)cnc1OC(F)F [Example E10, {(S)-3-[1-(6-Difluoromethoxy-5-methyl-pyridin-3-yl)-2,3-dihydro-1H-pyrido[3,4-b][1,4]oxazin-7-yloxy]-pyrrolidin-1-yl}-(1-methyl-1H-imidazol-4-yl)-methanone] |
| < 3 nM | 377 nM | Cc1cc(N2CCOc3cnc(O[C@H]4CCN(C(=O)C5CC5)C4)cc32)cnc1OC(F)F [Example E11, Cyclopropyl-{(S)-3-[1-(6-difluoromethoxy-5-methyl-pyridin-3-yl)-2,3-dihydro-1H-pyrido[3,4-b][1,4]oxazin-7-yloxy]-pyrrolidin-1-yl}-methanone] |
| 5 nM | 725 nM | COc1ncc(N2CCOc3cnc(O[C@H]4CCN(C(=O)C5CCS(=O)(=O)CC5)C4)cc32)cc1F [Example F2, (1,1-Dioxo-hexahydro-1lambda*6*-thiopyran-4-yl)-{(S)-3-[1-(5-fluoro-6-methoxy-pyridin-3-yl)-2,3-dihydro-1H-pyrido[3,4-b][1,4]oxazin-7-yloxy]-pyrrolidin-1-yl}-methanone] |
